{"source": "patent US12559526B2", "about": "“Complement component 1s (C1s) deficient cells for production of vaccines and biopharmaceutical proteins” (The Regents of the University of California, priority 2018, dated 2026)", "biological_target": "T1, C1s (Cricetulus griseus, UniProt G3GUR0)", "T1 construct": "endogenous in cells; host or cells: CHO cells; FreeStyle CHO-S (Thermo Fisher) named in Materials and Methods; 10x concentrated culture supernatant", "T1 sequence (G3GUR0 entry or part of it)": "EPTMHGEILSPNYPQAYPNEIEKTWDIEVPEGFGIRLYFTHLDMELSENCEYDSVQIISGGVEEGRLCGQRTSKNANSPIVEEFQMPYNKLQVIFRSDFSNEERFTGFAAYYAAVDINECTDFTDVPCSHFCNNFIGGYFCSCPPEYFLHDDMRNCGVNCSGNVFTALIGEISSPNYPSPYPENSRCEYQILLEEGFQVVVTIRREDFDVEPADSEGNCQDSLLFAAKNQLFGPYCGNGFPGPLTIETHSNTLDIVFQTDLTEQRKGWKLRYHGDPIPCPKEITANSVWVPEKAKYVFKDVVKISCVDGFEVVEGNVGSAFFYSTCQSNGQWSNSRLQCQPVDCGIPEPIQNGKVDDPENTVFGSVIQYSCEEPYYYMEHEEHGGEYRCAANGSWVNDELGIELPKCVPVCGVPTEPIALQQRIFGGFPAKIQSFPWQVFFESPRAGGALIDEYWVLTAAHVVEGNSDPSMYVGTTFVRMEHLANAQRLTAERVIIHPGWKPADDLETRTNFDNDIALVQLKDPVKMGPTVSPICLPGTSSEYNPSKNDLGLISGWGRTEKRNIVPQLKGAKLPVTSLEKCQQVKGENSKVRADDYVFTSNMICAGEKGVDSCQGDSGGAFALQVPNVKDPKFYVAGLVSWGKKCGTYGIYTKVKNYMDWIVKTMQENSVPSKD", "test": "Proteolysis of purified MN gp120 by 10× concentrated CHO supernatant, western blot", "assay_type": "biochemical, Chinese Hamster", "details": "purified MN gp120 (clade B) combined with 10× concentrated CHO supernatant; reduced with DTT; goat polyclonal anti-gp120 western blot", "procedure": "FIGS. 8A and 8B. […] FIG. 8A. Purified MN gp120, a clade B protein, was combined with 10× concentrated CHO supernatant. Samples were reduced with DTT and probed on western blot using a goat polyclonal antibody against gp120. FIG. 8B provides details of samples loaded in lanes 1-5 in FIG. 8A. The serine protease inhibitor, 4-AMB was used.\nEnrichment of protease from CHO cell culture supernatant was carried out using a series of chromatography columns to enrich for protein containing proteolytic activity. Individual chromatography fractions (CHO cell culture supernatant was fractionated based on size using size exclusion chromatography, followed by further purification on strong anion-exchange column) were assayed for the presence of protease activity against purified gp120.", "data": [{"compound": "O=C(O)CN(CCOCCOCCN(CC(=O)O)CC(=O)O)CC(=O)O", "note": "[EGTA]", "values": [{"measurement": "proteolysis of gp120 in CHO cell supernatant", "value": "Inhibition of proteolysis"}]}]}
